The values that follow come from ChEMBL document CHEMBL1201862, “PubChem BioAssay data set” (2004).

The subject of assay [1] is HEK293. The assay is described as follows: EBV LMP1 TES2 canonical NF-kB signalling blockers – cell-based, HEK293, luciferase, cherry-pick, dose response (AID 588343). The assay is classed as functional. Particulars: Homo sapiens.
In assay [2] the target is Latent membrane protein 1 (Human herpesvirus 4 (strain B95-8), UniProt P03230). The assay is described as follows: LMP1 TES1 pathway selectivity over dsRED control – imaging, HEK293T, dual-color eGFP/dsRED, cherry-picks, selectivity assay for LMP1 NF-kB inhibitor project, dose response (AID 588398). The assay is classed as functional, cell-based.
For assay [3], the target named is T1, Apoptotic protease-activating factor 1 (Homo sapiens, UniProt O14727).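 Further: caspase-3 cleavage of fluorogenic Rh110 DEVD substrate downstream of apoptosome activation.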
T1 sequence (O14727 whole entry): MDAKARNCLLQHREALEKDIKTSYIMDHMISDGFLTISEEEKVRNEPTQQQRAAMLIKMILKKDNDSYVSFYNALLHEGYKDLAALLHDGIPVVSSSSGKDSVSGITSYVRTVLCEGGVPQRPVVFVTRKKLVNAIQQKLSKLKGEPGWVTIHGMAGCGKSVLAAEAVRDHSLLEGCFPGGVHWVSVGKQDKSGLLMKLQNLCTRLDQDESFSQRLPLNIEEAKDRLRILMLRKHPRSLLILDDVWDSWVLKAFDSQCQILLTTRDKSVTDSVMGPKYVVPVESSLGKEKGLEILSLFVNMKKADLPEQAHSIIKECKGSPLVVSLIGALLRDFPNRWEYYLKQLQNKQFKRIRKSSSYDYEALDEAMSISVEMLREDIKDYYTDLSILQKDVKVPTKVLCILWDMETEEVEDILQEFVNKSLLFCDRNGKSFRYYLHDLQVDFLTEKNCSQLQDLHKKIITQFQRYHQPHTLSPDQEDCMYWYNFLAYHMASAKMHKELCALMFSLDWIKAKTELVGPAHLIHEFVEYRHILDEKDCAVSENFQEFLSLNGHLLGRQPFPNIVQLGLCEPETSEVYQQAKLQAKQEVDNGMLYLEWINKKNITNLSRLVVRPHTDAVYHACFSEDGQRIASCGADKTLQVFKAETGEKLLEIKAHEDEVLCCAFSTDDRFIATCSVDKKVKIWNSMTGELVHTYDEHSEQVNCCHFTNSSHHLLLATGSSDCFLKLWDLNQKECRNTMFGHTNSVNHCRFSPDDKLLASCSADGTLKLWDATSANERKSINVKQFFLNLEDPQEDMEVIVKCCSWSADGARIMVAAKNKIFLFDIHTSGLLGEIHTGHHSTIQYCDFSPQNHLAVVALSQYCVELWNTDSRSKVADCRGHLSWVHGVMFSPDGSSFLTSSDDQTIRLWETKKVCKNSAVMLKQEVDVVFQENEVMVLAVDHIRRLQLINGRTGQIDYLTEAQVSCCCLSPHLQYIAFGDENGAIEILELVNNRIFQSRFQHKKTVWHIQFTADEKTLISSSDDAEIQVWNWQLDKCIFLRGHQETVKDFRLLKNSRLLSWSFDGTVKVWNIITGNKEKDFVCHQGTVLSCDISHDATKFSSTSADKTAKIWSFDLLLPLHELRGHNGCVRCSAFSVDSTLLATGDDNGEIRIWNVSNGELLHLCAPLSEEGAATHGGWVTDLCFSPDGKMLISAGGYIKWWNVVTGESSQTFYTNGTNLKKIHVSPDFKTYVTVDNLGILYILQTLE
The assay is described as follows: SAR analysis of small molecule Activators of Apaf-1 in a Fluorescent assay. The settings on record: read-out: EC50_Mean. The assay is classed as functional.

Assay [4] has as its system INS1. The assay is described as follows: INS-1E survival protection against cytokine death – cell-based, luminescence, retest, dose response (AID 449756).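 Further: cell death triggered by IL-1 beta plus TNF-alpha plus IFN-gamma mixture; protective hits raise ATP signal compared with cytokine alone wells.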 The assay is classed as functional. The settings on record: Rattus norvegicus.
Assay [5] in a line: viability of PTEN-deleted HCT116 cells – cell-based, HCT116 PTEN knockout, dose response (AID 1047).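 Further: HCT116 colon tumor cells with PTEN knocked out; cells exposed to compound for 60 hours before readout; potency for loss of cell viability measured by luminescence.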 The assay is classed as functional.
The subject of assay [6] is BJ. The assay is described as follows: BJ-TERT-LT-ST fibroblast viability loss – cell-based, RAS-independent, luminescence, dose response (AID 1935).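 Further: BJ fibroblasts immortalized with TERT plus LT and ST oncogenes.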 The assay is classed as functional. The settings on record: Homo sapiens.
The test system of assay [7] is BJ. The assay is described as follows: growth inhibition of engineered Ras-driven BJ cells – cell-based, alamar blue fluorescence, cherrypicked samples, dose response (AID 2631).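 Further: confirmatory dose-response assay in RAS-dependent BJ fibroblasts engineered with TERT, LT and ST, with cytotoxicity read by fluorescence.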 The assay is classed as functional. The settings on record: Homo sapiens. (Resazurin is reduced to fluorescent resorufin, in cell work by metabolically active cells.)
Assay [8] is described as follows: Luminescence Cell-Based Dose Retest to Confirm Inhibitors of Cancer Stem Cells. [Related pubchem assays (depositor defined):AID2717, AID2721]. The assay is classed as functional. Particulars: Homo sapiens.
A short description of assay [9]: viability of HCT116 lacking mutant beta-catenin – cell-based, human colon tumor, dose response (AID 1045).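 Further: HCT116 colon tumor cells with beta catenin knocked out; cells exposed to compound for 60 hours.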 The assay is classed as functional.
Assay [10] relates to BJ. The assay is described as follows: BJ-TERT fibroblast viability loss – cell-based, RAS-independent, luminescence, dose response (AID 1933). The assay is classed as functional. Particulars: Homo sapiens.
For assay [11], the target named is T2, Heat shock factor protein 1 (Mus musculus, UniProt P38532).
T2 sequence (P38532 whole entry): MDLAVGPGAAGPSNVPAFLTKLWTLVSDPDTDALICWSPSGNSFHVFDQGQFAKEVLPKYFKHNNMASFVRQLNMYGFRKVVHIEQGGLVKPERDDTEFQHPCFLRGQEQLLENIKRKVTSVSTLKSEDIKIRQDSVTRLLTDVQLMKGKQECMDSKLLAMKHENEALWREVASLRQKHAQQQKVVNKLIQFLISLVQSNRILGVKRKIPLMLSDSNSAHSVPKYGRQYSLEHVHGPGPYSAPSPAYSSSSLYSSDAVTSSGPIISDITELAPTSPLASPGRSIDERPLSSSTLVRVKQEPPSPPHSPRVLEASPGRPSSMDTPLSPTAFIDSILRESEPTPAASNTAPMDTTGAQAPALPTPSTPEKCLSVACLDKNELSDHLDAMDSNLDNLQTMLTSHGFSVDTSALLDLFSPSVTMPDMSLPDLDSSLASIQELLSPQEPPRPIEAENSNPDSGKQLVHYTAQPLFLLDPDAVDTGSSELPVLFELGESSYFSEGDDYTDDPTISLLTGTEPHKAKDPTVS
The assay is described as follows: decrease of HSF1-responsive luciferase luminescence – cell-based, NIH3T3, dose retest, confirmation (AID 2382).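 Further: NIH3T3 fibroblasts with HSF1-driven luciferase reporter stressed by proteasome inhibitor MG132; luminescence from HSF1-driven luciferase expression after 8 hours of MG132 stress.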 The class given is functional.

The nature of assay [12]: DRD fibroblast viability loss – cell-based, non-viral oncogenic, luminescence, dose response (AID 1934). The class given is functional. Particulars: Homo sapiens.
In assay [13] the target is G-protein coupled receptor 55 (Homo sapiens, UniProt Q9Y2T6). The assay is described as follows: selective activators of receptor GPR55 – imaging, U2OS cells, beta-arrestin-GFP redistribution, primary screen (AID 1961). The class given is functional.
For assay [14], the system named is BJ. The assay is described as follows: cells. The class given is functional, cell-based. Particulars: Homo sapiens.
A short description of assay [15]: reduction of Shn3 3'UTR-driven luciferase in osteoblasts – cell-based, Clone20 osteoblasts, firefly luciferase, cherry-picked, dose response (AID 624132).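 Further: firefly luciferase luminescence from reporter carrying the Shn3 3'UTR in osteoblasts.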 The class given is functional.
Assay [16] in a line: non-specific 3'UTR reporter inhibition in Clone20-Shn3RL – cell-based, Renilla luciferase, cherry-picked, counter-screen for Shn3 inhibitor project, dose response (AID 624133). The assay is classed as functional. In general terms: The purpose of a counterscreen is to sort out artefacts and off-target activity.
The nature of assay [17]: fluconazole-exposed Candida albicans growth modulators – fluorescence, retest, confirmation (AID 2467). The class given is functional, cell-based.
Assay [18] addresses Serine/threonine-protein phosphatase (Candida dubliniensis (strain CD36 / CBS 7987 / NCPF 3949 / NRRLY-17841) (Yeast), UniProt B9W6M3). The assay is described as follows: blockers of CaCl2-induced CDRE-lacZ signaling – S. cerevisiae, luminescence, secondary, dose response (AID 2388).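 Further: yeast reporter cells carrying a calcineurin-responsive lacZ construct stimulated with calcium chloride; luminescent beta-galactosidase reporter signal in whole cells rather than isolated phosphatase activity; potency for inhibition where a drop in reporter signal means calcineurin blockade.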 The assay is classed as functional, cell-based.
The nature of assay [19]: NIH-3T3 fibroblast cytotoxicity, dose response, cytotoxicity control, cell-based, fluorescence, Alamar Blue, secondary assay (AID 2327).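 Further: NIH-3T3 mouse fibroblasts cultured with fluconazole at 8 µg/mL.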 The assay is classed as functional.
The target in assay [20] is ATP-dependent molecular chaperone HSP82 (Candida albicans (strain WO-1) (Yeast), UniProt C4YTQ8). The assay is described as follows: steroid-induced GRE reporter decrease in yeast – S. cerevisiae, luminescence, Hsp90 inhibitor project, dose response (AID 2400).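 Further: beta-galactosidase luminescence from glucocorticoid response element reporter as proxy for Hsp90 function; inhibitor potency where signal loss means Hsp90 inhibition.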 The assay is classed as functional, cell-based.
For assay [21], the target named is Nonstructural protein 1 (Influenza A virus, UniProt Q194T2). The assay is classed as functional, Influenza A virus (A/California/07/2009(H1N1)).
For assay [22], the system named is Streptococcus sp. 'group A'. The assay is described as follows: Streptococcus pyogenes SK(-)GAS viability under kanamycin – luminescence, BacTiterGlo, confirmation, counter-screen for streptokinase expression inhibitor project, dose response (AID 1900). The assay is classed as functional, organism-based.
The test system of assay [23] is Vero. The assay is described as follows: cells. The assay is classed as functional. The settings on record: Chlorocebus sabaeus.
In assay [24] the test system is Streptococcus. The assay is described as follows: GAS UMAA2166 growth inhibition – luminescence, BacTiterGlo, counter-screen for streptokinase expression inhibitor project, dose response (AID 1915).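 Further: potency for reduction of bacterial viability or growth.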 The assay is classed as functional, organism-based.

The structures appear in SMILES notation. Activity calls are given as the source filed them. For most assays here, no stated cut-off is given here; in the data, actives have a measured EC50 and inactives only a lower limit.

Sequence of G-protein coupled receptor 55 (Q9Y2T6 whole entry): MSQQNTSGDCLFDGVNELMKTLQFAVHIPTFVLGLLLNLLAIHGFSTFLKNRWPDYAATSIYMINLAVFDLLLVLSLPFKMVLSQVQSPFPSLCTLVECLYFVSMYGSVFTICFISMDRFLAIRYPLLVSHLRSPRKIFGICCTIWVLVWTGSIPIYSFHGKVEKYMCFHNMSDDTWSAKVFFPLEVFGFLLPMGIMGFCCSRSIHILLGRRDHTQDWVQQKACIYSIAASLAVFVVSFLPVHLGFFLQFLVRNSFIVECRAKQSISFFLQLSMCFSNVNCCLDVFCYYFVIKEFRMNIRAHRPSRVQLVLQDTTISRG
Sequence of Latent membrane protein 1 (P03230 whole entry): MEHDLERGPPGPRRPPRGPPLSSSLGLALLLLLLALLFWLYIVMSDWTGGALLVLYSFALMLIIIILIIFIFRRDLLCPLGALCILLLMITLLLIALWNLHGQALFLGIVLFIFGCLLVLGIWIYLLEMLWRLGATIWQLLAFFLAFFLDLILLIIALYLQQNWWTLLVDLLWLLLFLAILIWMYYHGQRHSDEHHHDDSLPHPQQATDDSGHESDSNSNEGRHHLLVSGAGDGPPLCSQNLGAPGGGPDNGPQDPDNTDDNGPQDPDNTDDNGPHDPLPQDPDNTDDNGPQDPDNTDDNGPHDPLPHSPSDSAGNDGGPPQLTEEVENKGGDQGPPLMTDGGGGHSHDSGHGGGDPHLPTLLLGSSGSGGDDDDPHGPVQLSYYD
Sequence of Serine/threonine-protein phosphatase (B9W6M3 whole entry): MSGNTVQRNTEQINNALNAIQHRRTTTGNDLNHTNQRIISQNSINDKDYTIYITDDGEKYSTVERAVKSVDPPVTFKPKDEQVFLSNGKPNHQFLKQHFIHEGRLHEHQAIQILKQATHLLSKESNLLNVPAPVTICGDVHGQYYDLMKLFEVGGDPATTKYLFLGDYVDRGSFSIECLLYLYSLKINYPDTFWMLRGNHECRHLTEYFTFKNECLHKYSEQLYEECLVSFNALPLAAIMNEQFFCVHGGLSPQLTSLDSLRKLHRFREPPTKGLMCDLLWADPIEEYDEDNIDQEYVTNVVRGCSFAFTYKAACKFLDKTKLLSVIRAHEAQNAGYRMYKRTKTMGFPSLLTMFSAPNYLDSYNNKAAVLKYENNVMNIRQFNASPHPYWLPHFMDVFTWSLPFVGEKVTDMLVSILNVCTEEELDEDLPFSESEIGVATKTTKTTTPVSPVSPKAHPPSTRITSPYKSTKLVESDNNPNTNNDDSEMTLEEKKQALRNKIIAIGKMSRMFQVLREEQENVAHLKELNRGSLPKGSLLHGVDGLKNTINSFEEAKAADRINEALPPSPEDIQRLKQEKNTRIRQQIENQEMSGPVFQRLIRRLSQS
Sequence of ATP-dependent molecular chaperone HSP82 (C4YTQ8 whole entry): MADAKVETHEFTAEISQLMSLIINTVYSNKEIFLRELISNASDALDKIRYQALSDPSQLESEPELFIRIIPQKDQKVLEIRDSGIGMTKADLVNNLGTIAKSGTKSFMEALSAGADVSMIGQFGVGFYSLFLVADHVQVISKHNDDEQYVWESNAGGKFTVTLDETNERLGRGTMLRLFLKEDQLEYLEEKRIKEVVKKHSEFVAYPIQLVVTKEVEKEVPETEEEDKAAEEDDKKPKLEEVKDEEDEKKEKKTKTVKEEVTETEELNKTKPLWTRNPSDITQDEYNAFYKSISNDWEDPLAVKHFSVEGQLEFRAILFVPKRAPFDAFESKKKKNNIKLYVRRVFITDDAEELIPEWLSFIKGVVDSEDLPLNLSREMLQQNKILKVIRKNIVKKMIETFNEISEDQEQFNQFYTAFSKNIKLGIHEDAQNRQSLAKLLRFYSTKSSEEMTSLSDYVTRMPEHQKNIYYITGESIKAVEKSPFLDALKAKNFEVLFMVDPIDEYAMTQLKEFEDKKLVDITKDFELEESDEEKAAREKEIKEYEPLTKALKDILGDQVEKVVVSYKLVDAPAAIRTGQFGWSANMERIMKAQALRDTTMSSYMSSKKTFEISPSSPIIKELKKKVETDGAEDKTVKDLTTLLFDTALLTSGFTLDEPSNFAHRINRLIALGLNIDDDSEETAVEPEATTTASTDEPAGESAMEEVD
Sequence of Nonstructural protein 1 (Q194T2 whole entry): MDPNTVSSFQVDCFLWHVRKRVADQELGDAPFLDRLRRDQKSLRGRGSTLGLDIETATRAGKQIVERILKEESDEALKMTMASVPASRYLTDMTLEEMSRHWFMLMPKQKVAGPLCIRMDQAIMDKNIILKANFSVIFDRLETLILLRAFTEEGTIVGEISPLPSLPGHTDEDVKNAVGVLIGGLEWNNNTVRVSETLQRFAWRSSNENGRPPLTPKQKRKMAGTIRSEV

Usually AC50 stands for the concentration at which the activity in the assay is half-maximal. Take `O=C(CF)N(O)c1ccc(C=Cc2ccccc2)cc1`: the values for the AC50 in [1] and in [2] were 0.732 µM (active) and 0.734 µM (active), respectively.

As to `COC(=O)[C@@H]1COC(c2ccc(OC)c(C(F)(F)F)c2)=N1`, in assay [3], the EC50 is > 100 µM (inactive).

In the case of `CCOC(=O)/C(=C\c1ccc([N+](=O)[O-])cc1)C(=O)c1cc(C(C)=O)c(Nc2ccccc2)s1`, the AC50 in assay [4] is 1.94 µM (active); in [8] it was 0.685 µM (active); in assay [15], 2.47 µM (active); in assay [16] it was 6.21 µM (active). The EC50 in [5] was 4.17 µM (active); in [6] it was 2.18 µM (inconclusive); in assay [7], 1.49 µM (active); in assay [9] it was 3.81 µM (active); in [10], 2.12 µM (active); in assay [11], 3.16 µM (inconclusive). The results for the EC50 in assay [12], in assay [13] and in assay [14] were 3.32 µM (active), > 32 µM (inactive) and 3.1 µM (active), respectively.

As for `CCCCOc1cccc(C2C(C(=O)c3ccc(C)o3)=C(O)C(=O)N2Cc2ccco2)c1` (centres undefined), the EC50 in [17] is 0.398 µM (active); in [18], > 180 µM (inactive); in assay [19], > 150 µM (inactive); in assay [20], 16.6 µM (active).

As usually defined, the IC50 is the concentration that inhibits the measured activity by half. Broadly, the CC50 is the concentration at which the toxic effect on the cells reaches its halfway point. Regarding `C/C(=N\NC(=O)c1cccc2ccccc12)c1ccccn1`, the IC50 in assay [21] was 7.25 µM (active). For the same molecule, the EC50 in assay [22] is 2.88 µM (active); in assay [6], 3.87 µM (active); in [7], 0.497 µM (inconclusive); in [10], 5.73 µM (active); in [12], 2.4 µM (active); in assay [24], 6.39 µM (active). Further, in assay [14], the EC50 is 3.45 µM (active). In addition, the CC50 in assay [23] was 3.56 µM (active).
